{"source": "patent EP0354818A2", "about": "“Pharmaceutical compositions containing polyaromatic compounds as active ingredient and their use” (HADASSAH MEDICAL ORGANIZATION, priority 1988, dated 1990)", "key": {"[1]": {"target": "T1, ESb mouse lymphoma heparanase (Mus musculus, UniProt Q6YGZ1)", "T1 construct": "endogenous in cells; host or cells: ESb mouse lymphoma cells", "T1 sequence (Q6YGZ1 150-535 limits assumed)": "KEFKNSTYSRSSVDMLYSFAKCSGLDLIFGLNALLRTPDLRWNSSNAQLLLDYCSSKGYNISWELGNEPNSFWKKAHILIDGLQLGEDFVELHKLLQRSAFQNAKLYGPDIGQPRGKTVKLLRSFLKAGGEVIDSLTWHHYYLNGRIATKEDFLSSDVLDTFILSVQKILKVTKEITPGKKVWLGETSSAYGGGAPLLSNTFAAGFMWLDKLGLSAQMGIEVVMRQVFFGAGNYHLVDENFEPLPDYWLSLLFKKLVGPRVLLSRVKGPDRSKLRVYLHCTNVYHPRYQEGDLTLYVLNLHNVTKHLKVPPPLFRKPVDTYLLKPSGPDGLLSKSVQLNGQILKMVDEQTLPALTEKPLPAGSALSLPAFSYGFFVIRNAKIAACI", "T1 sequence (Q6YGZ1 28-101 limits assumed)": "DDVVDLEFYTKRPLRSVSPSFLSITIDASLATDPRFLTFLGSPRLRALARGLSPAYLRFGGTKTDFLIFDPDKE", "experiment": "Inhibition of heparanase degradation of 35S labelled ECM", "format": "biochemical", "conditions": "compound 10 µgr/ml, 24 hrs incubation; for Total low-mol-wt. HS fragments released by heparanase (cpm): control 17,756 cpm", "method": "The ability of several of the above mentioned compounds to inhibit lymphoma-cell derived heparanase was tested in the assay system described by Vlodavsky et. al. (Cancer Research. 43: 2704-2711 (1983). ³⁵S labelled ECM was incubated for 24 hrs with ESb mouse lymphoma heparanase in the presence of 10 ugr ml of the indicated compounds. Degradation of the sulfated glycosaminoglycan was followed by gel filtration of the supernatants. Heparanase activity is expressed as the total amount of labelled low-molecular-weight fragments released from the ECM substrate. The results are summarized in Table III."}, "lipoprotein lipase (LPL)": {"target": "T2, lipoprotein lipase (LPL) (Rattus norvegicus, UniProt Q06000)", "T2 construct": "endogenous in cells; host or cells: F1 heart cell cultures from newborn rat hearts (mainly non-beating mesenchymal cells)", "T2 sequence (Q06000 28-474)": "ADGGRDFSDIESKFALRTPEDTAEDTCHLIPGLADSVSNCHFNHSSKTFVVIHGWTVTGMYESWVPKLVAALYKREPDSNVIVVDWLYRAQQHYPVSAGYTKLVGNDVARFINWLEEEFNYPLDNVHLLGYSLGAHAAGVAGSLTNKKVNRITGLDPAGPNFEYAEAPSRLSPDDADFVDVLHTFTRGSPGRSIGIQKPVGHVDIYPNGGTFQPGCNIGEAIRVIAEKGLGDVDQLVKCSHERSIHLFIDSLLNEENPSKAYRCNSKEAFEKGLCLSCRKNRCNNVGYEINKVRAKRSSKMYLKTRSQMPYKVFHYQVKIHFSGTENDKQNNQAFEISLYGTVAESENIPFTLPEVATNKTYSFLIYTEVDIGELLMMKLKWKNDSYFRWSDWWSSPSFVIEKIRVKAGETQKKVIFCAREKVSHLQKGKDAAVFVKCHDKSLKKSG", "experiment": "LPL activity in cultured heart cells and medium", "format": "cell-based", "conditions": "24 hrs incubation of heart cells; for LPL activity: total: cells plus medium; for % increase in the total: versus 0 M", "method": "F₁ heart cell cultures were prepared from newborn rat hearts as previously described (Chajek, T. et al, Biochem. Biophys. Acta 528, 456-474(1978)). They consisted mainly of non-beating mesenchymal cells and were used 8-12 days after their isolation.\nThe enzyme activity was determined on aliquots of medium and of homogenates of cells which had been released from the petri dish with a rubber policeman in 1 ml of 0.025 M NH₃/NH₄C1 buffer (pH 8.1) containing 1 unit/ml of heparin. The assay system consisted of 0.1 ml of medium or 0.1 ml of cell homogenate ([…]) and 0.1 ml of substrate containing labeled triolein, prepared according to the method of Nilsson-Ehle and Schotz, (J. Lipid Res. 17, 536-541 (1976)). Incubations were carried out at 37°C for 45 min. The reaction was stopped by the addition of methanol/chloroform/heptane (1,4:1.25:1, v/v) and the extraction of fatty acids was performed according to the method of Belfrage and Vaughan (J. Lipid Res. 10, 341-344 (1969), as modified by Nilsson-Ehle and Schotz. Enzyme activity was calculated according to the formula of Nilsson-Ehle and Schotz."}, "fresh human blood": {"test_system": "fresh human blood", "experiment": "Anticoagulant effect: partial thromboplastin time (PTT) in blood samples", "conditions": "citrated human blood, after addition of Ca++, control 30.5", "method": "0.25 ml of the indicated concentration of the drug (x10, diluted in saline) were added to 2.25 ml of fresh human blood, collected in the presence of citrate. PTT was measured following the addition of Ca⁺⁺."}, "LPL": {"target": "T3, LPL (Rattus norvegicus, UniProt Q06000)", "T3 construct": "from tissue; host or cells: rat plasma (in vivo, after oral aluminon)", "T3 sequence (Q06000 28-474)": "T2 sequence (Q06000 28-474)", "experiment": "Plasma levels of LPL after oral administration to rats", "format": "in vivo", "conditions": "1ml of 10%-20% solution", "text": "Moreover, since aluminon can be absorbed through the gastrointestinal tract, it can be used as an orally administrable anticoagulant (as opposed to heparin which has to be given by injection)."}}}
{"compound": "CCN(Cc1cccc(S(=O)(=O)O)c1)c1ccc(C(=C2C=CC(=[N+](CC)Cc3cccc(S(=O)(=O)O)c3)C=C2)c2ccc(O)cc2S(=O)(=O)[O-])cc1", "note": "[Fast Green]", "values": [{"measurement": "% Inhibition", "setting": "[1]", "value": 32, "unit": "%"}]}
{"compound": "Cc1cc(-c2ccc(/N=N/c3ccc4c(S(=O)(=O)O)cc(S(=O)(=O)O)c(N)c4c3O)c(C)c2)ccc1/N=N/c1ccc2c(S(=O)(=O)O)cc(S(=O)(=O)O)c(N)c2c1O", "note": "[Evan's Blue]", "values": [{"measurement": "Total low-mol-wt. HS fragments released by heparanase (cpm)", "setting": "[1]", "value": "6,986 cpm"}, {"measurement": "LPL activity: total", "setting": "lipoprotein lipase (LPL); Evan's Blue 10⁻³ M", "value": 7749, "unit": "m mole FFA/h/dish"}, {"measurement": "% increase in the total", "setting": "lipoprotein lipase (LPL); Evan's Blue 10⁻³ M", "value": "+139.4%"}, {"measurement": "LPL activity: total", "setting": "lipoprotein lipase (LPL); Evan's Blue 10⁻⁴ M", "value": 5230, "unit": "m mole FFA/h/dish"}, {"measurement": "% increase in the total", "setting": "lipoprotein lipase (LPL); Evan's Blue 10⁻⁴ M", "value": "+61.6%"}, {"measurement": "LPL activity: total", "setting": "lipoprotein lipase (LPL); Evan's Blue 10⁻⁵ M", "value": 4288, "unit": "m mole FFA/h/dish"}, {"measurement": "% increase in the total", "setting": "lipoprotein lipase (LPL); Evan's Blue 10⁻⁵ M", "value": "+32.5%"}]}
{"compound": "O=C(O)C1=CC(=C(c2ccc(O)c(C(=O)O)c2)c2ccc(O)c(C(=O)O)c2)C=CC1=O", "note": "[Aluminon]", "values": [{"measurement": "PTT", "setting": "fresh human blood; Aluminon final conc. 0.01 mg/ml", "value": 30.5, "unit": "s"}, {"measurement": "PTT", "setting": "fresh human blood; Aluminon final conc. 0.1 mg/ml", "value": 190, "unit": "s"}, {"measurement": "PTT", "setting": "fresh human blood; Aluminon final conc. 1 mg/ml", "value": ">300", "unit": "s"}, {"measurement": "Total low-mol-wt. HS fragments released by heparanase (cpm)", "setting": "[1]", "value": "3,822 cpm"}, {"measurement": "plasma levels of LPL", "setting": "LPL", "value": "elevated by about an order of magnitude"}]}
{"compound": "O=S(=O)(O)c1ccc(N=C2C=CC(=C(c3ccc(Nc4ccc(S(=O)(=O)O)cc4)cc3)c3ccc(Nc4ccc(S(=O)(=O)O)cc4)cc3)C=C2)cc1", "note": "[Methyl Blue]", "values": [{"measurement": "% Inhibition", "setting": "[1]", "value": 23, "unit": "%"}, {"measurement": "Total low-mol-wt. HS fragments released by heparanase (cpm)", "setting": "[1]", "value": "13,676 cpm"}]}
